“Also recorded” adds a separate entry of the source. Like-named read-outs stand apart in the source and are kept apart here.
Experiments:
[1] = system: wild-type p53-expressing (H460) cell line; assay: CTG cell proliferation assay, H460 cell line; type: cell-based; conditions: for IC50: Homo sapiens, read-out: IC50
Procedure: (§1) Each CTG cell proliferation assay included the steps as follows: • 1) An H460 or HT29 cell suspension was added to a 96-well plate at 100 μL per well so that each well contained 2000 or 10000 cells. • 2) The cells were incubated overnight at 37° C. in an incubator with 5% CO2. • 3) Treatment with Compounds
(§2) Combination therapy: 1 μL of adavosertib (at four concentrations), AZD7762 (at four concentrations), palbociclib (at four concentrations) or ceralasertib (at three concentrations) was added to each well and shaken gently until homogeneous mixing.
(§3) 7) Chemiluminescence was read for 1000 ms on a multimode microplate reader. • 8) IC50 (half-maximal inhibitory concentration) values of the compounds were calculated using the GraphPad Prism 5 software. 1.

[2] = system: p53-deficient (HT29) cell line; assay: CTG cell proliferation assay, HT29 cell line; type: cell-based; conditions: for IC50: read-out: IC50
Procedure: as §1, §2, §3

[3] = H460 (wild-type p53), both drugs at low concentrations
[4] = HT29 (p53-deficient), various concentrations, also low

SMILES: C[C@H](OP(=O)(N1CC1)N1CC1)c1ccc([N+](=O)[O-])c(Oc2cccc(C(=O)N(C)C)c2)c1 [AST-3424, (S)-1-(3-(3-N,N-dimethylaminocarbonyl)phenoxyl-4-nitrophenyl)-1-ethyl-N,N′-bis(ethylene)phosphoramidate]
- additive cytotoxic effect in combination therapy with ceralasertib ([1]; H460 (wild-type p53)): significant additive cytotoxic effect
- additive cytotoxic effect in combination therapy with palbociclib ([1]; H460 (wild-type p53), all concentrations): did not exhibit any significant additive cytotoxic effects
- additive cytotoxic effect in combination therapy with AZD7762 [1, 3]: not significant
- additive cytotoxic effect in combination therapy with adavosertib [1, 3]: not significant
- additive cytotoxic effect in combination therapy with ceralasertib [1, 3]: not significant
- additive cytotoxic effect in combination therapy with AZD7762 ([1]; H460 (wild-type p53), medium and high concentrations): certain additive cytotoxic effects
- additive cytotoxic effect in combination therapy with ceralasertib ([1]; H460 (wild-type p53), medium or high concentration): certain additive cytotoxic effects
- additive cytotoxic effect in combination therapy with adavosertib ([1]; H460 (wild-type p53), medium or high concentrations): certain additive cytotoxic effects
- Ratio combo/single ([1]; H460, 0.15 μM ceralasertib, first assay): 6.67
- Ratio combo/single ([1]; H460, 0.15 μM ceralasertib, second assay): 4.00
- Ratio combo/single ([1]; H460, 0.44 μM ceralasertib, first assay): 20.00
- Ratio combo/single ([1]; H460, 0.44 μM ceralasertib, second assay): 24.00
- Ratio combo/single ([1]; H460, 1.3 μM ceralasertib, first assay): 13.33
- Ratio combo/single ([1]; H460, 1.3 μM ceralasertib, second assay): 12.00
- Ratio single/combo ([1]; H460, IC50 monotherapy / IC50 with 0.5 nM AZD7762): 1.03
- Ratio single/combo ([1]; H460, IC50 monotherapy / IC50 with 0.5 nM adavosertib): 1.10
- Ratio single/combo ([1]; H460, IC50 monotherapy / IC50 with 6.4 nM AZD7762): 0.73
- Ratio single/combo ([1]; H460, IC50 monotherapy / IC50 with 6.4 nM adavosertib): 1.26
- Ratio single/combo ([1]; H460, IC50 monotherapy / IC50 with 160 nM AZD7762): 2.13
- Ratio single/combo ([1]; H460, IC50 monotherapy / IC50 with 160 nM adavosertib): 1.79
- Ratio single/combo ([1]; H460, IC50 monotherapy / IC50 with 800 nM adavosertib): 2.27
- Ratio combo/single ([1]; H460, IC50 with 0.05 nM palbociclib / IC50 monotherapy): 1.12
- Ratio combo/single ([1]; H460, IC50 with 0.64 nM palbociclib / IC50 monotherapy): 1.12
- Ratio combo/single ([1]; H460, IC50 with 400 nM palbociclib / IC50 monotherapy): 1.24
- IC50 ([1]; NCI-H460, 72 h, H460, monotherapy, 72 h): 0.34 nM
- IC50 ([1]; NCI-H460, H460, monotherapy, first assay): 0.4 nM
- IC50 ([1]; NCI-H460, H460, monotherapy, second assay): 0.24 nM
- IC50 ([1]; NCI-H460, H460, with 0.05 nM palbociclib (2 h pretreatment), 72 h): 0.38 nM
- IC50 ([1]; NCI-H460, H460, with 0.5 nM AZD7762 (2 h pretreatment), 72 h): 0.33 nM
- IC50 ([1]; NCI-H460, H460, with 0.5 nM adavosertib (2 h pretreatment), 72 h): 0.31 nM
- IC50 ([1]; NCI-H460, H460, with 0.64 nM palbociclib (2 h pretreatment), 72 h): 0.38 nM
- IC50 ([1]; NCI-H460, H460, with 6.4 nM AZD7762 (2 h pretreatment), 72 h): 0.47 nM
- IC50 ([1]; NCI-H460, H460, with 6.4 nM adavosertib (2 h pretreatment), 72 h): 0.27 nM
- IC50 ([1]; NCI-H460, H460, with 0.15 μM ceralasertib, first assay): 0.06 nM
- IC50 ([1]; NCI-H460, H460, with 0.15 μM ceralasertib, second assay): 0.06 nM
- IC50 ([1]; NCI-H460, H460, with 160 nM AZD7762 (2 h pretreatment), 72 h): 0.16 nM
- IC50 ([1]; NCI-H460, H460, with 160 nM adavosertib (2 h pretreatment), 72 h): 0.19 nM
- IC50 ([1]; NCI-H460, H460, with 400 nM palbociclib (2 h pretreatment), 72 h): 0.42 nM
- IC50 ([1]; NCI-H460, H460, with 0.44 μM ceralasertib, first assay): 0.02 nM
- IC50 ([1]; NCI-H460, H460, with 0.44 μM ceralasertib, second assay): 0.01 nM
- IC50 ([1]; NCI-H460, H460, with 800 nM adavosertib (2 h pretreatment), 72 h): 0.15 nM
- IC50 ([1]; NCI-H460, H460, with 1.3 μM ceralasertib, first assay): 0.03 nM
- IC50 ([1]; NCI-H460, H460, with 1.3 μM ceralasertib, second assay): 0.02 nM
- additive cytotoxic effect in combination therapy with ceralasertib ([2]; HT29 (p53-deficient), various concentrations): very significant additive effects; also recorded: significant additive cytotoxic effects
- additive cytotoxic effect in combination therapy with AZD7762 [2, 4]: significant additive cytotoxic effects
- additive cytotoxic effect in combination therapy with adavosertib [2, 4]: significant additive cytotoxic effects
- additive cytotoxic effect in combination therapy with palbociclib [2, 4]: significant additive cytotoxic effects
- Ratio single/combo ([2]; HT29, 0.44 μM ceralasertib 2 h-pretreatment + AST-3424-72 h-cotreatment): 37.56
- Ratio single/combo ([2]; HT29, 0.44 μM ceralasertib + AST-3424 72 h, simultaneously): 51.53
- Ratio single/combo ([2]; HT29, AST-3424-2 h-pretreatment + 0.44 μM ceralasertib-72 h-cotreatment): 52.44
- Ratio single/combo ([2]; HT29, IC50 monotherapy / IC50 with 50 nM palbociclib): 1.17
- Ratio single/combo ([2]; HT29, IC50 monotherapy / IC50 with 100 nM AZD7762): 65.70
- Ratio single/combo ([2]; HT29, IC50 monotherapy / IC50 with 100 nM adavosertib): 40.17
- Ratio single/combo ([2]; HT29, IC50 monotherapy / IC50 with 130 nM AZD7762): 70.63
- Ratio single/combo ([2]; HT29, IC50 monotherapy / IC50 with 130 nM adavosertib): 55.39
- Ratio single/combo ([2]; HT29, IC50 monotherapy / IC50 with 160 nM AZD7762): 71.82
- Ratio single/combo ([2]; HT29, IC50 monotherapy / IC50 with 160 nM adavosertib): 70.63
- Ratio single/combo ([2]; HT29, IC50 monotherapy / IC50 with 1000 nM palbociclib): 1.92
- Ratio single/combo ([2]; HT29, IC50 monotherapy / IC50 with 5000 nM palbociclib): 2.34
- influence of the order of adding drugs on additive cytotoxic effect with ceralasertib ([2]; HT29, different orders of adding AST-3424 and 0.44 μM ceralasertib): did not show any differences
- IC50 ([2]; HT29, monotherapy, 72 h): 73.4 nM
- IC50 ([2]; Homo sapiens, HT-29, 72 h, HT29, 0.44 μM ceralasertib + AST-3424 72 h, simultaneously): 1.72 nM
- IC50 ([2]; Homo sapiens, HT-29, 72 h, HT29, monotherapy, 72 h): 84.8 nM
- IC50 ([2]; Homo sapiens, HT-29, HT29, 0.44 μM ceralasertib 2 h-pretreatment + AST-3424-72 h-cotreatment): 2.36 nM
- IC50 ([2]; Homo sapiens, HT-29, HT29, AST-3424-2 h-pretreatment + 0.44 μM ceralasertib-72 h-cotreatment): 1.69 nM
- IC50 ([2]; Homo sapiens, HT-29, HT29, monotherapy, first assay): 129 nM
- IC50 ([2]; Homo sapiens, HT-29, HT29, monotherapy, order-of-addition assay): 88.6 nM
- IC50 ([2]; Homo sapiens, HT-29, HT29, monotherapy, second assay): 99 nM
- IC50 ([2]; Homo sapiens, HT-29, HT29, with 0.04 μM ceralasertib, first assay): 3.26 nM
- IC50 ([2]; Homo sapiens, HT-29, HT29, with 0.04 μM ceralasertib, second assay): 1.62 nM
- IC50 ([2]; Homo sapiens, HT-29, HT29, with 50 nM palbociclib (2 h pretreatment), 72 h): 62.5 nM
- IC50 ([2]; Homo sapiens, HT-29, HT29, with 100 nM AZD7762 (2 h pretreatment), 72 h): 1.29 nM
- IC50 ([2]; Homo sapiens, HT-29, HT29, with 100 nM adavosertib (2 h pretreatment), 72 h): 2.11 nM
- IC50 ([2]; Homo sapiens, HT-29, HT29, with 130 nM AZD7762 (2 h pretreatment), 72 h): 1.2 nM
- IC50 ([2]; Homo sapiens, HT-29, HT29, with 130 nM adavosertib (2 h pretreatment), 72 h): 1.52 nM
- IC50 ([2]; Homo sapiens, HT-29, HT29, with 160 nM AZD7762 (2 h pretreatment), 72 h): 1.18 nM
- IC50 ([2]; Homo sapiens, HT-29, HT29, with 160 nM adavosertib (2 h pretreatment), 72 h): 1.2 nM
- IC50 ([2]; Homo sapiens, HT-29, HT29, with 1000 nM palbociclib (2 h pretreatment), 72 h): 38.1 nM
- IC50 ([2]; Homo sapiens, HT-29, HT29, with 1.3 μM ceralasertib, first assay): 1.42 nM
- IC50 ([2]; Homo sapiens, HT-29, HT29, with 1.3 μM ceralasertib, second assay): 1.21 nM
- IC50 ([2]; Homo sapiens, HT-29, HT29, with 2 μM ceralasertib, first assay): 2.41 nM
- IC50 ([2]; Homo sapiens, HT-29, HT29, with 2 μM ceralasertib, second assay): 1.23 nM
- IC50 ([2]; Homo sapiens, HT-29, HT29, with 5000 nM palbociclib (2 h pretreatment), 72 h): 31.4 nM

Source: patent publication US20260183320A1, “METHOD FOR TREATING CANCER BY COMBINING ALKYLATING AGENT PRODRUG AND CELL CYCLE INHIBITOR” (ASCENTAWITS PHARMACEUTICALS, LTD., priority 2022, published 2026)
